# From patent publication US4939134A, “26-aminocholesterol and derivatives and analogs thereof in the regulation of cholesterol accumulation in body tissue” (New York University, priority 1988, dated 1990)
# “Also recorded” adds a separate entry of the source.
# Columns and labels:
# [1] = tested on: HepG2 Cells; assay: Total cell cholesterol in HepG2 hepatocytes; assay type: cell-based, human; settings: 96 h, n = 3
# Text: (§1) HepG2 cells were obtained from Dr. Barbara Knowles of the Wistar Institute, Pennsylvania. The HepG2 stock monolayers were maintained under the same conditions as the fibroblast monolayers, in a medium comprising MEM supplemented with 10% heat-inactivated FBS, and 1% (v/v) each of penicillin-streptomycin solution, non-essential and essential amino acids, and L-glutamine.
# (§2) For experiments using HepG2 cells, confluent stock monolayers were washed once with Dulbecco's PBS, dissociated with 0.05-0.02% trypsin-EDTA followed by treatment with deoxyribonuclease I (0.1%), and were seeded (3.0×10^6) under identical conditions. The experimental MEM contained 25% (v/v) D2 O, 9% (v/v) delipidated FBS, and 1% (v/v) each of heat-inactivated FBS, penicillin-streptomycin, essential and non-essential amino acids, L-glutamine and 20 mM HEPES.
# (§3) The fibroblast and hepatoblastoma cells were cultured in media containing 25% D2 O and 1% FBS in order to determine de novo cholesterol synthesis under conditions that permit receptor mediated cholesterol transport, according to the method of Easterman & Javitt et al., J. Lipid Res., 26: 950-954 (1985). Dish cultures of each cell type were prepared, and 26-aminocholesterol, dissolved in N,N-dimethylformamide (DMF, 9 ul per dish, 0.3% v/v) was added to each culture. The cells were then grown to confluence (96 hours, day 5). […] Duplicate or triplicate dishes containing 9 ul of DMF, but without 26-aminocholesterol, were used as controls.
# After 96 hours of incubation, medium was removed from the cell cultures, and the cells were washed with Dulbecco's PBS and were harvested with 0.05% trypsin - 0.02% EDTA. The protease was deactivated with an equivolume aliquot of soybean trypsin inhibitor, and the resulting cell suspension was centrifuged for 5 minutes at 500xg. An internal standard of 5B-cholestan-3B-ol was added to the pellets prior to extraction with an 8:4:3 chloroform:methanol:water Folch mixture, as described in Folch et al., J. Biol. Chem., 266: 497-509 (1957). An aliquot of the extract was blown to dryness under nitrogen and silylated with 2:1:1 MSTFA (a sylated reagent supplied by Pierce Co.): toluene:-pyridine. Free cholesterol was determined by gas-liquid chromatography (GLC) on a Perkin-Elmer capillary gas-liquid chromatography model 8320 fitted with a 20 m DE-1 methylsilicon glass column (Supelco). The remaining extract was dried and saponified with 2% ethanolic KOH at 80° C. for one hour. The […] was then re-extracted and total cholesterol was measured by GLC after silylation. Cholesterol ester was calculated as the difference between the total and free cholesterol determinations. Newly synthesized cholesterol was determined by GLC-MS isotope mass ratios, using a Hewlett-Packard GC-MS spectrometer model 5890 fitted with DB-1 methyl silicon 0.18 i.d. 20 m glass column (Supelco), according to the method of J. Lipid. Res., 26: 950-954, supra.
# For purposes of comparison, ^125 I-LDL and cholesterol assays were also conducted in cultures prepared according to the above methods, but incubated with 26-hydroxycholesterol in one set of experiments and with the sterol 26-thiacholesterol in another set of experiments. These sterols were obtained according to known methods, similar to those described above for 26-aminocholesterol.
# [2] = tested on: HepG2 Cells; assay: Total 125I-LDL binding to HepG2 cells; assay type: cell-based, human; settings: for I-LDL BINDING: HepG2, 10 ug/ml 125I-LDL, 4 h, 4° C., n = 3, untreated 36.0; for LDL-binding (in words): HepG2 / hepatic cells
# Text: as §1, §2, §3
# LDL (d, 1.019-1.03) was isolated by sequential preparative ultracentrifugation of normal human plasma, using solid KBr for density adjustment, according to the methods of Havel et al., J. Clin. Invest., 34: 1345-1353 (1955) and Radding & Steinberg, J Clin. Invest., 39: 1560-1569 (1960). The isolated LDL was then iodinated with ^125 INa by the monochloride procedure of McFarlane, Nature, 102: 53 (1958), as modified for lipoproteins according to Bilheimer et al., Biochim. Biophys. Acta. 260: 212-221 (1972). To remove free iodine, the LDL preparation was subjected to column chromatography on a Sephadex G-25M disposable mini-column (Pharmacia PD-10) and was dialized against 0.15 M NaCl and […] EDTA, pH 7.4. The specific activity of all LDL preparations ranged between 160-300 cpm/mg of LDL proteins. ^125 I-LDL was stored at 4° C. and was sterilized by filtration through a 0.45 um membrane just prior to incubation with the treated fibroblast and hepatoblastoma cell cultures and control cultures.
# For binding studies, a fixed concentration of 10 ug/ml of ^125 I-LDL was added directly to the monolayers of the confluent culture medium (at or near the 96th hour) and incubation was continued for a further 4 hours at 37° C. for fibroblasts and 4° C. for HepG2 cells. After this incubation, the culture dishes were placed on ice, the medium was removed, and the cell monolayers were washed as described in Goldstein & Brown, J. Biol. Chem., 249: 5153-5162 (1974). The monolayers were then scraped off the dishes with a teflon policeman and were solubilized with 1 ml of 0.1 N NaOH.
# Cell-associated radioactivity was measured in a Packard auto gamma scintillation spectrometer Model 5160, and cell protein was measured by the method of Lowry et al., J. Biol. Chem., 193: 265-275 (1951), using bovine serum albumin as a standard. Total ^125 I-LDL binding was expressed as the mass of ^125 I-LDL (mg) per mg of cell protein. […]
structure (smiles),measurement,setting,value
"C[C@@H](CN)CCC[C@@H](C)[C@H]1CC[C@H]2[C@@H]3CC=C4C[C@@H](O)CC[C@]4(C)[C@H]3CC[C@]12C [26-NH2, 26-aminocholesterol]",TOTAL CHOLESTEROL,[1]; 0.156 uM,30.6 +/- 3.7 ug cholesterol per mg cell pro
same,TOTAL CHOLESTEROL,[1]; 0.312 uM,25.0 +/- 0.6 ug cholesterol per mg cell pro
same,TOTAL CHOLESTEROL,[1]; 0.625 uM,28.8 +/- 1.8 ug cholesterol per mg cell pro
same,I-LDL BINDING,[2]; 0.156 uM,40.9 +/- 3.1 ug LDL protein per mg cell pro
same,I-LDL BINDING,[2]; 0.312 uM,43.9 +/- 4.0 ug LDL protein per mg cell pro
same,I-LDL BINDING,[2]; 0.625 uM,52.4 +/- 8.8 ug LDL protein per mg cell pro
same,LDL-binding (in words),[2],do not provide a similar reduction; also recorded: little or no effect; also recorded: no impact
"CC(CO)CCC[C@@H](C)[C@H]1CC[C@H]2[C@@H]3CC=C4C[C@@H](O)CC[C@]4(C)[C@H]3CC[C@]12C (some centres unmarked) [26-OH, 26-hydroxycholesterol]",TOTAL CHOLESTEROL,[1]; 0.625 uM,24.7 +/- 2.8 ug cholesterol per mg cell pro
same,I-LDL BINDING,[2]; 0.625 uM,53.6 +/- 1.3 ug LDL protein per mg cell pro
same,LDL-binding (in words),[2],do not provide a similar reduction
CC(CS)CCC[C@@H](C)[C@H]1CC[C@H]2[C@@H]3CC=C4C[C@@H](O)CC[C@]4(C)[C@H]3CC[C@]12C (some centres unmarked) [26-SH],TOTAL CHOLESTEROL,[1]; 5.0 uM,25.5 +/- 4.3 ug cholesterol per mg cell pro
same,TOTAL CHOLESTEROL,[1]; 10.0 uM,27.4 +/- 4.0 ug cholesterol per mg cell pro
same,TOTAL CHOLESTEROL,[1]; 20.0 uM,23.2 +/- 1.2 ug cholesterol per mg cell pro
same,I-LDL BINDING,[2]; 5.0 uM,37.8 +/- 3.4 ug LDL protein per mg cell pro
same,I-LDL BINDING,[2]; 10.0 uM,45.8 +/- 3.9 ug LDL protein per mg cell pro
same,I-LDL BINDING,[2]; 20.0 uM,35.7 +/- 4.8 ug LDL protein per mg cell pro
same,LDL-binding (in words),[2],no impact
